{"source": "patent US6537545B1", "about": "“Use of corneal hardening agents in enzymeorthokeratology” (ISTA Pharmaceuticals, Inc., priority 1998, dated 2003)", "assay_type_in_all_cases": "in vivo", "key": {"[1]": {"system": "eyes of myopic human subjects", "assay": "Mild myopia study, group III: corrective lenses and 3% glyceraldehyde without hyaluronidase (Example 9)", "conditions": "no hyaluronidase; subject 011; three month follow-up point; baseline 20/20"}, "[2]": {"system": "eyes of myopic human subjects", "assay": "Mild myopia study, group I: 50 IU hyaluronidase, corrective lenses, 3% glyceraldehyde (Example 9)", "from_the_text": "(§1) Given the favorable results obtained in Example 8, an additional study was undertaken to test the safety and efficacy of the method of the present invention using a larger group of subjects. In this study, a group of subjects were selected and randomly separated into three test groups to test the safety and efficacy of using hyaluronidase and a glyceraldehyde solution for treating subjects with sub-optimal visual acuity. Groups one and two received an intrastromal injection of hyaluronidase (50 and 500 IU, respectively), while group three received a control injection of saline.\n(§2) Following a two week incubation period after the injection, the three groups were fitted with corrective lenses to optimize the visual acuity of the subjects. The corrective lenses were left in place for a period of time sufficient to alter the shape of the subjects' eyes so as to achieve an optimal visual acuity. This period of time was generally 2 days in length. Once an acceptable visual acuity was achieved, the subjects in the three groups received a topical 3% glyceraldehyde solution in the form of ophthalmic drops four times per day while wearing the corrective lenses. The glyceraldehyde treatment was generally administered for one month. Lens wear occurred from 8 to 12 hours during the day.\n(§3) At the end of the treatment period both the lens wear and the glyceraldehyde solution administration was terminated. The general health and visual acuity of the subjects was monitored from 3 to 5 months following treatment termination.\nBefore beginning the experimental protocol, test subjects were examined initially to establish a baseline from which the future results of the treatment were compared. For each subject a medical history was taken and a detailed examination of the eyes was also performed. The eyes of each subject were tested to determine: refraction cell count, intraocular pressure (IOP), pachymetry, corneal topography and corneal elasticity. A slit-lamp examination was also performed to establish the health of the eye. Also, the presence of any general or ocular discomfort of the subjects was noted.\nFollowing the establishment of a baseline reading, group 1 subjects were administered a single intrastromal injection of 50 IU hyaluronidase prior to the orthokeratology treatment. Following 14 days of incubation, the subjects were fitted with corrective contact lenses for overnight wear. Subjects wore the corrective lenses night and day for a period of two (2) to seven (7) days or until visual 20/20 visual acuity was achieved. Subjects achieving an acceptable visual acuity (approximately 20/20) received an application of the topical 3% glyceraldehyde solution ophthalmic drops four times per day (8:00, 12:00, 16:00, and 20:00) for a period of 1 month in conjunction with daytime lens wear for stabilization. Lens wear lasted for 8 to 12 hours per day. The subjects were examined periodically during the glyceraldehyde treatment to monitor changes in the health of the treated eyes.\n(§4) At the end of the treatment period, the stabilizing lens were removed and the administration of the 3% glyceraldehyde solution was terminated. Following termination of the treatment, the subjects were examined immediately after treatment was terminated, once a week for the first four weeks after termination, and then monthly to measure changes in the visual acuity of the treated eyes. The health of the eye was also monitored. Sequelae characterized by the appearance or worsening of serious ocular symptoms or slit-lamp findings observed during these examinations was assessed. The proportions of subjects with such findings were analyzed."}, "[3]": {"system": "eyes of non-sighted human patients", "assay": "Safety of enzymatic corneaplasty with hyaluronidase and topical 3% glyceraldehyde in seven non-sighted human patients (Example 6)", "conditions": "500 IU hyaluronidase, lenses, 3% glyceraldehyde 2 drops 4 times per day, 28 days", "protocol": "The methodology used in this study was similar to that discussed in Example 4. Subjects were injected intrastromally with 500 IU of a hyaluronidase solution on the first day of the study following an initial eye examination. The injected enzyme was allowed to digest the corneal substrate for seven (7) days. At that time contact lenses were fitted to the treated eyes of the subjects. The subjects wore the lenses for another seven days at which time the topical application of the 3% glyceraldehyde solution was first applied. The 3% glyceraldehyde solution was applied at 2 drops, 4 times per day for the following 28 days. At the end of the 28 days the contact lenses were removed and the glyceraldehyde treatments were ceased.\nThe subjects were examined and data was recorded throughout the treatment period and following the cessation of treatment. […] The only apparent negative effects of the treatment were incidents of edema and minor manifestations of SPK. These negative manifestations resolved favorably for most patients."}, "[4]": {"system": "eyes of myopic human subjects", "assay": "Mild myopia study, group III: corrective lenses and 3% glyceraldehyde without hyaluronidase (Example 9)", "conditions": "for UVA at follow-up after end of treatment: no hyaluronidase", "from_the_text": "as §1, §2, §3\nAs with groups I and II, the test subjects were examined initially to establish a baseline from which the future results of the treatment were compared. Following the establishment of a baseline reading, group III subjects were fitted with contact lenses and wore the corrective lenses at night for a period of two (2) to seven (7) days or until an acceptable visual acuity (approximately 20/20) was achieved. Unlike groups I and II, group III test subjects in this group received no injection of hyaluronidase during the course of treatment. Subjects achieving an acceptable visual acuity received the topical 3% glyceraldehyde solution in the form of ophthalmic drops four times per day (08:00, 12:00, 16:00, and 20:00) for a period of 1 month in conjunction with daytime lens wear for stabilization. During this period, lens wear occurred for approximately 8-12 hours per day and there was no nocturnal lens wear.\nThe subjects were examined periodically during the glyceraldehyde treatment to monitor changes in the health of the treated eyes.\nas §4\nThe visual acuity values shown are obtained using the Snellen letters test and the Early Treatment Diabetic Retinopathy Study (ETDRS) protocol. The table values shown are the better values as compared between the results of the two methods. The subjects' baseline visual acuity ranged from 20/80 to 20/300."}, "[5]": {"system": "Dutch Belted rabbit corneal epithelium", "assay": "Corneal scraping, rate of re-epithelialization (Example 2)", "conditions": "rabbits; scraping on Study Day 71 after 63 days of drops; examined 1, 2, 3 days post-scraping; vs BSS", "protocol": "On Study Day 71 (following 63 days of drops), corneal scrapings were performed as follows. Photographs of the uninstrumented eyes were taken after fluorescein staining. Fluorescein staining was performed as described in Example 1. The examined animals were then placed under general anesthesia using ketamine/xylazine also as described in Example 1. Two (2) drops of proparacaine were instilled into both eyes of the examined animal as an anesthetic. The animal to be examined was then placed on an examination table with one eye gently proptosed. A 10×15 mm strip of epithelium from the central cornea was denuded with a sterile #11 scalpel blade (Feather Safety Razor Co., Ltd., Japan). The examined animal was then returned to the slit lamp, topical fluorescein was applied, and the eye was photographed. The animals were examined for reepithelialization at 1, 2, and 3 days post-scraping. Photographs were taken and the rate of re-epithelialization was determined and documented."}}}
{"compound": "O=CC(O)CO", "note": "(stereo not drawn) [glyceraldehyde]", "values": [{"measurement": "UVA at follow-up after end of treatment", "setting": "[1]", "result": "20/40"}, {"measurement": "overall effect on correction of visual acuity", "setting": "[2]; glyceraldehyde treatment with injection of 50 IU of hyaluronidase", "result": "effective in facilitating the correction"}, {"measurement": "visual acuity at follow-up after end of treatment", "setting": "[2]; subject 001, 5-month follow up, baseline 20/80", "result": "20/40"}, {"measurement": "visual acuity at follow-up after end of treatment", "setting": "[2]; subject 002, 4-month follow-up, baseline 20/300", "result": "20/125"}, {"measurement": "visual acuity at follow-up after end of treatment", "setting": "[2]; subject 007, 3-month follow-up, baseline 20/200", "result": "20/50"}, {"measurement": "visual acuity at follow-up after end of treatment", "setting": "[2]; subject 009, 3-month follow-up, baseline 20/200", "result": "20/63"}, {"measurement": "visual acuity at follow-up", "setting": "[2]; subject 010R, time not stated, baseline 20/80", "result": "20/20"}, {"measurement": "visual acuity at follow-up after end of treatment", "setting": "[2]; subject 015, 3-month follow-up, baseline 20/80", "result": "20/25"}, {"measurement": "visual acuity at follow-up", "setting": "[2]; subject 022R, 3-week followup, baseline 20/62", "result": "20/80"}, {"measurement": "visual acuity at follow-up", "setting": "[2]; subject 024R, time not stated, baseline 20/100", "result": "20/40"}, {"measurement": "visual acuity at follow-up", "setting": "[2]; subject 028, 2-month point, baseline 20/300", "result": "20/125"}, {"measurement": "visual acuity at follow-up", "setting": "[2]; subject 029, 2-month point, baseline 20/200", "result": "20/40"}, {"measurement": "visual acuity at follow-up", "setting": "[2]; subject 033, 2-month point, baseline 20/300", "result": "20/125"}, {"measurement": "negative effects of enzyme injection or glyceraldehyde application", "setting": "[3]", "result": "no significant negative effects"}, {"measurement": "overall effect on retention of orthokeratology benefits", "setting": "[4]; glyceraldehyde treatment in the absence of hyaluronidase", "result": "effective in extending the retention time"}, {"measurement": "UVA at follow-up after end of treatment", "setting": "[4]; subject 005, four month time point, baseline 20/100", "result": "20/100"}, {"measurement": "UVA at follow-up after end of treatment", "setting": "[4]; subject 006, five month time point, baseline 20/200", "result": "20/100"}, {"measurement": "UVA at follow-up after end of treatment", "setting": "[4]; subject 012, four month time point, baseline 20/200", "result": "20/100"}, {"measurement": "UVA at follow-up after end of treatment", "setting": "[4]; subject 014, three month time point, baseline 20/80", "result": "20/50"}, {"measurement": "UVA at follow-up after end of treatment", "setting": "[4]; subject 016, four month time point, baseline 20/300", "result": "20/80"}, {"measurement": "UVA at follow-up after end of treatment", "setting": "[4]; subject 016, three month point, baseline 20/300", "result": "20/60"}, {"measurement": "UVA at follow-up after end of treatment", "setting": "[4]; subject 021, two month time point, baseline 20/80", "result": "20/60"}, {"measurement": "UVA at follow-up after end of treatment", "setting": "[4]; subject 032, two month time point, baseline 20/120", "result": "20/60"}, {"measurement": "healing rate of scraped corneas (re-epithelialization)", "setting": "[5]", "result": "healed at a rate equivalent to those of the control"}]}
